The text below walks through data of paper PMC12627232 (MedComm, 2025).

Data set [1] relates to immune cells of MC38 syngeneic model. The data set is described as follows: Flow cytometry of tumor-infiltrating and spleen immune cells, MC38 model. In kind it is in vivo, C57BL/6J mice. As to the method:
After 14 days, the tumors and spleens were split, and cells were isolated to analyze the change in cancer immunity. For TILs, the tumors were incubated with the tumor digestion fluid (collagenase and hyaluronic acid included) and then filtered with a 200‐gauge mesh and centrifuged (100×g, 1 min). The supernatant was centrifuged (400×g, 5 min) and precipitated cells were purified by 40% percoll solution followed by RBC lysis and washing. For splenocytes, the spleen was passed through a 200‐gauge mesh, and splenocytes were collected after RBC lysis and washing.
The prepared cell suspensions were incubated with rat serum at room temperature for 30 min to block the FC‐receptor and incubated with fluorescent antibodies at 4°C for 1 h. For Foxp3 staining, Foxp3/Transcription Factor Staining Buffer Set (eBioscience; #00‐5523‐00) was used. For intracellular cytokines staining, cells were pre‐stimulated with 1 µg/mL ionomycin (Beyotime; #S1672), 50 ng/mL PMA (Sigma; #P1585) and Brefeldin A (BioLegend; #420601) for 4 h. Flow cytometry was conducted with FACS Celesta (BD Biosciences, USA) and analyzed with FlowJo software.

The test system of the next data set is MDA-MB-231 xenograft. Put plainly: MDA-MB-231 xenograft model. The class given is in vivo, BALB/c-nu mice. Here is the method:
BALB/c‐nu mice were obtained from Pengyue Co. Ltd. (Jinan, China) and were fed in laminar flow cabinets under specific pathogen‐free (SPF) conditions. With the approval of ethics committee of Shandong University, the animal experiments were conducted. To establish the MDA‐MB‐231 xenograft model, BALB/c‐nu mice (3–4 weeks old and 15–18 g body weight, male) were selected and injected subcutaneously into the armpits with 1.2 × 10^7 MDA‐MB‐231 cells. […] Body weight and tumor size were measured every 3 days during the 22‐day treatment.

The target of another data set is HDAC3/NCOR1 complex (Homo sapiens, UniProt O15379). Put plainly: HDACs enzymatic assay HDAC3. In kind it is biochemical. The settings on record: Class I; mean ± SD of three. Here is the method: (§1) HDACs enzymatic assays were conducted according to our previous work. […] Substrates (Boc‐Lys(acetyl)‐AMC for HeLa nuclear extract, Ac‐Leu‐Gly‐Lys (Tfa)‐AMC for HDAC4, HDAC5, HDAC6, HDAC7, HDAC9, HDAC10, and HDAC11, Boc‐Lys(triflouroacetyl)‐AMC for HDAC8 and Ac‐Leu‐Gly‐Lys(acetyl)‐AMC for HDAC1, HDAC2, HDAC3) were added to the mixture. The blank group was set to no enzyme or drug but contains substrates and the control group was set to no drug but contains substrates and enzymes to each 96‐well plate. After 30 min of incubation at 37°C, the mixture was terminated with 1 mg/mL trypsin and 3 µM TSA. After another 30 min, the fluorescence intensity was measured using a Varioskan plate reader at 360/460 nm. […] The inhibition curves and IC50 values were simulated and calculated using the log(inhibitor) versus response (three parameters) mode in GraphPad Prism software.
Sequence of HDAC3/NCOR1 complex (O15379 whole entry): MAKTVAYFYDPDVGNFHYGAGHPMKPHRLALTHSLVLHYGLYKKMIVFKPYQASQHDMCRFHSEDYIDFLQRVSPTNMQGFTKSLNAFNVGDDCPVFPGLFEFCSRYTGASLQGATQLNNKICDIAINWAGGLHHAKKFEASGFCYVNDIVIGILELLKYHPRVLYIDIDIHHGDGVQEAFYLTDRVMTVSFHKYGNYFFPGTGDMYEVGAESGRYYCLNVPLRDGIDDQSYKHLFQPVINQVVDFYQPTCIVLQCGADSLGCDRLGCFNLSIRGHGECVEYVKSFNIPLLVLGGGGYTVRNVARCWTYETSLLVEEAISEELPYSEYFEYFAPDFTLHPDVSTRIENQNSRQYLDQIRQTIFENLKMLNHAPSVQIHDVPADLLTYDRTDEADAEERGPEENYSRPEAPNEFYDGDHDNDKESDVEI
Sequence of HDAC3/NCOR1 complex (Q9Y618 395-489 partner): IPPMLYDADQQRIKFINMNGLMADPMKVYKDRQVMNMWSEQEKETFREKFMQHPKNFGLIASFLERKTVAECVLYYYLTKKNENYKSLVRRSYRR

For another data set, the target named is T1, HDAC6 (Homo sapiens, UniProt Q9UBN7).
T1 construct: purchased BPS BIOSCIENCE Inc 50006
T1 sequence (Q9UBN7 whole entry): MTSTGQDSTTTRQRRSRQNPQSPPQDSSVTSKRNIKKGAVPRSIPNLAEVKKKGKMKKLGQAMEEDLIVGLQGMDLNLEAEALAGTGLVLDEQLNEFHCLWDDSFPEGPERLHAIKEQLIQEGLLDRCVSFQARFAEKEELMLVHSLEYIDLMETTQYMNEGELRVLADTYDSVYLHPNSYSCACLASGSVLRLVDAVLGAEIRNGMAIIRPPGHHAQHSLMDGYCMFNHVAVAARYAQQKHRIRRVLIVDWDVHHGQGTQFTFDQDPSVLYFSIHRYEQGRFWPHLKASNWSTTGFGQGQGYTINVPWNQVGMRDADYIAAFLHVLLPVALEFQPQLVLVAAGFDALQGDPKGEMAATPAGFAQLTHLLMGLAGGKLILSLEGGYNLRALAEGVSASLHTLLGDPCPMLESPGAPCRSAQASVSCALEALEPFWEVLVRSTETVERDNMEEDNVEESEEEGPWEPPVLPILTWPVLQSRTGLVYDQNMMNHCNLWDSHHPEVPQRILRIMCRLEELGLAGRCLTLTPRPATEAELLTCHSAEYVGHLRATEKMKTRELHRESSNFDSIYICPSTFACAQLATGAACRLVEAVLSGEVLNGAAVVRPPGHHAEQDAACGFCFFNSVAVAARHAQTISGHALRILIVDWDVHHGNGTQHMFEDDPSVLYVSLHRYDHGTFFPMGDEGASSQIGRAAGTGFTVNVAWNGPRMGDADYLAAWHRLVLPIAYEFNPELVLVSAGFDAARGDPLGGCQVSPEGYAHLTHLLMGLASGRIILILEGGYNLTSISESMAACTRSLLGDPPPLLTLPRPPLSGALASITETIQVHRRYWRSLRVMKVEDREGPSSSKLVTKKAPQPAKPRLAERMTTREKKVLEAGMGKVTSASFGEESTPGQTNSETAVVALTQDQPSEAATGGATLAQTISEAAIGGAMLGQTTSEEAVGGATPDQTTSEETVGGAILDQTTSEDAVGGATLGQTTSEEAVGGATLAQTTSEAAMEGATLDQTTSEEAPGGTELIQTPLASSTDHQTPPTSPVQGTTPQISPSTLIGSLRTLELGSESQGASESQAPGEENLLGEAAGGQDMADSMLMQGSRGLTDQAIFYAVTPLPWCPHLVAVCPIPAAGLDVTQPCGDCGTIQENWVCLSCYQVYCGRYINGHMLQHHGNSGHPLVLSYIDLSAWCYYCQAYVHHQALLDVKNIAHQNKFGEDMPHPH
Put plainly: HDACs enzymatic assay HDAC6. The settings on record: Class IIb. In kind it is biochemical. As to the method: as §1

The test system of a further data set is MC38 cells. Put plainly: PD-L1 expression in MC38 cells. The class given is cell-based. The settings on record: 24 h.
In a further data set the test system is HeLa nuclear extract. The data set is described as follows: HDAC inhibition, HeLa nuclear extract. In kind it is biochemical. As to the method: HDACs enzymatic assays were conducted according to our previous work. In detail, the HeLa nuclear extract, HDAC1 (BPS BIOSCIENCE INC, 50051), HDAC2 (BPS BIOSCIENCE Inc; 50052), HDAC3/NCOR1 complex (BPS BIOSCIENCE Inc; 50003), HDAC4 (BPS BIOSCIENCE Inc; 50004), HDAC5 (BPS BIOSCIENCE Inc; 50005), HDAC6 (BPS BIOSCIENCE Inc; 50006), HDAC7 (BPS BIOSCIENCE Inc; 50007), HDAC8 (BPS BIOSCIENCE Inc; 50008), HDAC9 (BPS BIOSCIENCE Inc; 50009), HDAC10 (BPS BIOSCIENCE Inc; 50010), or HDAC11 (BPS BIOSCIENCE Inc; 50011) was diluted to the proper concentrations according to the relative enzymatic activity and the linear range of the plate reader and mixed with different concentrations of drugs. Substrates (Boc‐Lys(acetyl)‐AMC for HeLa nuclear extract, Ac‐Leu‐Gly‐Lys (Tfa)‐AMC for HDAC4, HDAC5, HDAC6, HDAC7, HDAC9, HDAC10, and HDAC11, Boc‐Lys(triflouroacetyl)‐AMC for HDAC8 and Ac‐Leu‐Gly‐Lys(acetyl)‐AMC for HDAC1, HDAC2, HDAC3) were added to the mixture. The blank group was set to no enzyme or drug but contains substrates and the control group was set to no drug but contains substrates and enzymes to each 96‐well plate. After 30 min of incubation at 37°C, the mixture was terminated with 1 mg/mL trypsin and 3 µM TSA. After another 30 min, the fluorescence intensity was measured using a Varioskan plate reader at 360/460 nm. […] The inhibition curves and IC50 values were simulated and calculated using the log(inhibitor) versus response (three parameters) mode in GraphPad Prism software.

What is called TGI is how far tumour growth fell short of that in controls. A lower TGI goes with a weaker effect on the tumour. By IC50 is commonly meant the concentration that inhibits the measured activity by half. As to `O=C(CCCCCCNC(=O)c1cc(OCCc2ccccc2)c2ccccc2n1)NO` [SDFZ-8], in data set [1], the “PD-1 expression in tumor-infiltrating CD4+ T cells and CD8+ T cells” value is listed as “did not affect”; the “PD-1 expression in tumor-infiltrating NK cells” value is recorded as “downregulated”; the “PD-L1 expression in tumor-infiltrating immune cells (DCs and macrophages)” value is reported as “upregulation”; the “surface expression of MHC class II in DCs and macrophages” value was “significantly increased”. For the same molecule, in data set [1] (CD4+ and CD8+ T cells), the “tumor-infiltrating lymphocytes (TILs)” value was “more significant increase”. Besides, in data set [1] (CD206 marker), the “M2 polarization of TAMs” value is given as “suppressed”. Moreover, the “M1 polarization of TAMs” value in data set [1] (iNOS marker) is “robustly promoted”. In data set [1] (spleen), the “PD-L1 and PD-1 expression in various immune cells in the spleen” value is “significantly decreased”; the “proportion of CD4+ T cells, CD8+ T cells and NK cells in the spleen” value is on record as “elevated”. In data set [1] (tumor), the “expression of IFN-γ and TNF-α in CD4+ T cells and CD8+ T cells” value was “upregulation”. For the same molecule, the “general health of the mice” value with MDA-MB-231 xenograft (MDA-MB-231 xenograft BALB/c-nu mice, 60 mg/kg/day) was “without adversely affecting the general health of the mice”. In the data set with MDA-MB-231 xenograft (MDA-MB-231 xenograft, BALB/c-nu mice, 60 mg/kg/day oral gavage, 22 days), this molecule showed a TGI of 76%. At HDAC3/NCOR1 complex, this molecule displayed an IC50 of 300 ± 100 nM. Also, the IC50 at HDAC6 amounted to 3.1 ± 0.5 nM. Further, the “expression level of PD-L1” value in the data set on MC38 cells is “increased”. In addition, the 50% inhibitory concentration (IC50) in the data set on HeLa nuclear extract (mean ± SD of three determinations, read-out: HDAC inhibitory activity IC50 (HeLa extract)) came out at 10 nM. Further, the “HDAC inhibitory activity surpassing LBH-589” value in the data set on HeLa nuclear extract (versus LBH-589) was determined as 2.5 fold. Besides, the “HDAC inhibitory activity surpassing SAHA” value with HeLa nuclear extract (versus SAHA) was 28.6 fold.
